Results as given in patent US11034650B2, “Compounds useful for treating a Mannheimia haemolytica or Histophilus somni infection” (Intervet Inc., priority 2016, dated 2021).
In brackets after ≈: the same amount, converted by molar mass.

Columns and labels:
Type in all cases: cell-based
[1] = tested on: Mannheimia haemolytica MH 12587 (1071, BRD field isolate, macrolide-resistance: erm+, E+); assay: MIC, broth-microdilution (CLSI VET01-A4), strain MH 12587; conditions: Mannheimia haemolytica strain MH 12587, broth-microdilution; unit assumed
In short: (§1)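 Compounds were serially diluted twofold in microdilution trays. Growth was judged by eye, and the MIC was the lowest concentration showing no turbidity. Results were interpreted per CLSI VET01-S3.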

[2] = tested on: Pasteurella multocida PM 12080 (IV102277-0093, BRD field isolate); assay: MIC, broth-microdilution (CLSI VET01-A4), strain PM 12080; conditions: Pasteurella multocida strain PM 12080, broth-microdilution; unit assumed
In short: as §1

[3] = tested on: Mannheimia haemolytica MH 13093 (XB0472-6014.1, BRD field isolate); assay: MIC, broth-microdilution (CLSI VET01-A4), strain MH 13093; conditions: Mannheimia haemolytica strain MH 13093, broth-microdilution; unit assumed
In short: as §1

[4] = tested on: Pasteurella multocida PM 6267 (P 2225 (L386), reference strain, mouse infection strain); assay: MIC, broth-microdilution (CLSI VET01-A4), strain PM 6267; conditions: Pasteurella multocida strain PM 6267, broth-microdilution; unit assumed
In short: as §1

[5] = tested on: Mannheimia haemolytica MH 6357 (M7/2, reference strain, cattle infection strain); assay: MIC, broth-microdilution (CLSI VET01-A4), strain MH 6357; conditions: Mannheimia haemolytica strain MH 6357, broth-microdilution; unit assumed
In short: as §1

[6] = tested on: Mannheimia haemolytica MH 13065 (XB0446-6003.9, BRD field isolate); assay: MIC, broth-microdilution (CLSI VET01-A4), strain MH 13065; conditions: Mannheimia haemolytica strain MH 13065, broth-microdilution; unit assumed
In short: as §1

[7] = tested on: Mannheimia haemolytica MH 6374 (ATCC 33396, reference strain); assay: MIC, broth-microdilution (CLSI VET01-A4), strain MH 6374; conditions: Mannheimia haemolytica strain MH 6374, broth-microdilution; unit assumed
In short: as §1

[8] = tested on: Pasteurella multocida PM 10775 (080130003051, BRD field isolate); assay: MIC, broth-microdilution (CLSI VET01-A4), strain PM 10775; conditions: Pasteurella multocida strain PM 10775, broth-microdilution; unit assumed
In short: as §1

[9] = tested on: Mannheimia haemolytica MH 10720 (154, BRD field isolate); assay: MIC, broth-microdilution (CLSI VET01-A4), strain MH 10720; conditions: Mannheimia haemolytica strain MH 10720, broth-microdilution; unit assumed
In short: as §1

[10] = tested on: Pasteurella multocida PM 6391 (ATCC 43137, reference strain); assay: MIC, broth-microdilution (CLSI VET01-A4), strain PM 6391; conditions: Pasteurella multocida strain PM 6391, broth-microdilution; unit assumed
In short: as §1

MIC PM 12080 [2]	MIC PM 6267 [4]	MIC PM 10775 [8]	MIC PM 6391 [10]	Structure (SMILES)	MIC MH 12587 [1]	MIC MH 13093 [3]	MIC MH 6357 [5]	MIC MH 13065 [6]	MIC MH 6374 [7]	MIC MH 10720 [9]
0.2 µg/mL (≈ 0.461 µM)	≤ 0.1 µg/mL	≤ 0.1 µg/mL	0.4 µg/mL (≈ 0.923 µM)	CC[C@H](C)[C@H](NC(=O)c1ccc(C#Cc2ccc(CNC3CCC3)cc2)cc1)C(=O)NO [Compound 197]	6.3 µg/mL (≈ 14.5 µM)	3.1 µg/mL (≈ 7.15 µM)	1.6 µg/mL (≈ 3.69 µM)	1.6 µg/mL (≈ 3.69 µM)	3.1 µg/mL (≈ 7.15 µM)	0.4 µg/mL (≈ 0.923 µM)
0.8 µg/mL (≈ 1.67 µM)	0.4 µg/mL (≈ 0.834 µM)	0.2 µg/mL (≈ 0.417 µM)	1.6 µg/mL (≈ 3.34 µM)	CSC(C)(C)[C@H](NC(=O)c1ccc(C#Cc2ccc(CNC3CCCC3)cc2)cc1)C(=O)NO [Compound 244]	6.3 µg/mL (≈ 13.1 µM)	6.3 µg/mL (≈ 13.1 µM)	3.1 µg/mL (≈ 6.46 µM)	3.1 µg/mL (≈ 6.46 µM)	6.3 µg/mL (≈ 13.1 µM)	1.6 µg/mL (≈ 3.34 µM)
≤ 0.1 µg/mL	≤ 0.1 µg/mL	≤ 0.1 µg/mL	0.2 µg/mL (≈ 0.399 µM)	COCCNCc1ccc(C#Cc2ccc(C(=O)N[C@H](C(=O)NO)C(C)(C)S(C)(=O)=O)cc2)cc1 [Compound 257]	3.1 µg/mL (≈ 6.18 µM)	1.6 µg/mL (≈ 3.19 µM)	3.1 µg/mL (≈ 6.18 µM)	1.6 µg/mL (≈ 3.19 µM)	1.6 µg/mL (≈ 3.19 µM)	0.4 µg/mL (≈ 0.797 µM)

The next lines start with the compound.

Structure (SMILES)	MIC PM 12080 [2]	MIC PM 6267 [4]	MIC PM 10775 [8]	MIC PM 6391 [10]	MIC MH 12587 [1]	MIC MH 13093 [3]	MIC MH 6357 [5]	MIC MH 13065 [6]	MIC MH 6374 [7]	MIC MH 10720 [9]
CC(C)(O)[C@H](NC(=O)c1ccc(C#Cc2ccc(CNCc3ccccn3)cc2)cc1)C(=O)NO [Compound 230]	≤ 0.1 µg/mL	≤ 0.1 µg/mL	≤ 0.1 µg/mL	≤ 0.1 µg/mL	1.6 µg/mL (≈ 3.39 µM)	0.8 µg/mL (≈ 1.69 µM)	0.8 µg/mL (≈ 1.69 µM)	0.8 µg/mL (≈ 1.69 µM)	0.4 µg/mL (≈ 0.846 µM)	≤ 0.1 µg/mL
COCCCNCc1ccc(C#Cc2ccc(C(=O)N[C@H](C(=O)NO)C(C)C)cc2)cc1 [Compound 205]	0.4 µg/mL (≈ 0.914 µM)	0.2 µg/mL (≈ 0.457 µM)	≤ 0.1 µg/mL	0.4 µg/mL (≈ 0.914 µM)	6.3 µg/mL (≈ 14.4 µM)	3.1 µg/mL (≈ 7.09 µM)	1.6 µg/mL (≈ 3.66 µM)	1.6 µg/mL (≈ 3.66 µM)	3.1 µg/mL (≈ 7.09 µM)	0.8 µg/mL (≈ 1.83 µM)
CC[C@H](C)[C@H](NC(=O)c1ccc(C#Cc2ccc(CNCc3ccnc(Cl)c3)cc2)cc1)C(=O)NO [Compound 190]	0.2 µg/mL (≈ 0.396 µM)	≤ 0.1 µg/mL	≤ 0.1 µg/mL	0.4 µg/mL (≈ 0.792 µM)	3.1 µg/mL (≈ 6.14 µM)	1.6 µg/mL (≈ 3.17 µM)	1.6 µg/mL (≈ 3.17 µM)	1.6 µg/mL (≈ 3.17 µM)	3.1 µg/mL (≈ 6.14 µM)	0.4 µg/mL (≈ 0.792 µM)
COc1ccc(CNCc2ccc(C#Cc3ccc(C(=O)N[C@H](C(=O)NO)C(C)(C)S(C)(=O)=O)cc3)s2)cc1 [Compound 316]	≤ 0.1 µg/mL	0.2 µg/mL (≈ 0.351 µM)	≤ 0.1 µg/mL	≤ 0.1 µg/mL	0.8 µg/mL (≈ 1.4 µM)	0.4 µg/mL (≈ 0.702 µM)	≤ 0.1 µg/mL	0.2 µg/mL (≈ 0.351 µM)	0.2 µg/mL (≈ 0.351 µM)	≤ 0.1 µg/mL
CC[C@H](C)[C@H](NC(=O)c1ccc(C#Cc2ccc(CN3CCCC3)cc2)cc1)C(=O)NO [Compound 174]	1.6 µg/mL (≈ 3.69 µM)	0.4 µg/mL (≈ 0.923 µM)	≤ 0.1 µg/mL	1.6 µg/mL (≈ 3.69 µM)	6.3 µg/mL (≈ 14.5 µM)	6.3 µg/mL (≈ 14.5 µM)	3.1 µg/mL (≈ 7.15 µM)	6.3 µg/mL (≈ 14.5 µM)	6.3 µg/mL (≈ 14.5 µM)	0.8 µg/mL (≈ 1.85 µM)
CON=C(C)[C@H](NC(=O)c1ccc(C#Cc2ccc(CNC3CCC3)cc2)cc1)C(=O)NO [Compound 385]	0.4 µg/mL (≈ 0.892 µM)	25 µg/mL (≈ 55.7 µM)	0.8 µg/mL (≈ 1.78 µM)	0.2 µg/mL (≈ 0.446 µM)	1.6 µg/mL (≈ 3.57 µM)	6.3 µg/mL (≈ 14 µM)	3.1 µg/mL (≈ 6.91 µM)	3.1 µg/mL (≈ 6.91 µM)	6.3 µg/mL (≈ 14 µM)	1.6 µg/mL (≈ 3.57 µM)
